In ChEMBL document CHEMBL4507259 (2021):
Activity calls are given as the source filed them. No cut-off for these calls is given here.

How the values were obtained:
[1] = test system: Epidermal growth factor receptor (Homo sapiens), P00533 [UNDEFINED MUTATION]; conditions: Compound concentration 1000.0 nM
[2] = target: Homeodomain-interacting protein kinase 2 (Homo sapiens) (UniProt Q9H2X6); conditions: Compound concentration 1000.0 nM
[3] = target: T1, Alpha-2A adrenergic receptor (Homo sapiens) (UniProt P08913); experiment: alpha 2A (h) CEREP ligand profiling; conditions: filed as antagonist, Compound concentration 10.0 uM
T1 sequence (whole entry): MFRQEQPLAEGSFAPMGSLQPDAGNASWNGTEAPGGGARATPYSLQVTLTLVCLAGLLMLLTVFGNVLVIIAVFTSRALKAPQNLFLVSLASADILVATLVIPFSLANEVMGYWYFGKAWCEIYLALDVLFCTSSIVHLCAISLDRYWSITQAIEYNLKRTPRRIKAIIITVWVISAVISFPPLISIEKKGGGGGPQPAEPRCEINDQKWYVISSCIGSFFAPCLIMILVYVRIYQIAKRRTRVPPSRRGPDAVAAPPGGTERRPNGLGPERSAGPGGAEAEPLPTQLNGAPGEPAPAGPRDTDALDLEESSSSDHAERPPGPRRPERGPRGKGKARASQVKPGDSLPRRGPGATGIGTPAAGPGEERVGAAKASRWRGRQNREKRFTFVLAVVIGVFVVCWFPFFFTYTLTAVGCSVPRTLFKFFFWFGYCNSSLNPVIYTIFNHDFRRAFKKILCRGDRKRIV

[4] = target: Kappa-type opioid receptor (Homo sapiens) (UniProt P41145); experiment: kappa (KOP) CEREP ligand profiling; conditions: filed as agonist; Compound concentration 10.0 uM
[5] = target: Ribosomal protein S6 kinase alpha-6 (Homo sapiens) (UniProt Q9UK32); conditions: Compound concentration 1000.0 nM
[6] = target: Tyrosine-protein kinase Lyn (Homo sapiens) (UniProt P07948); conditions: Compound concentration 1000.0 nM
LNCaP-Clone-FGC = experiment: LnCaP-FGC Proliferation; assay type: functional, cell-based; conditions: Homo sapiens
[7] = target: Bone morphogenetic protein receptor type-1B (Homo sapiens) (UniProt O00238); conditions: Compound concentration 1000.0 nM
[8] = target: Serine/threonine-protein kinase Nek4 (Homo sapiens) (UniProt P51957); conditions: Compound concentration 1000.0 nM
[9] = target: D(1A) dopamine receptor (Homo sapiens) (UniProt P21728); conditions: Compound concentration 10.0 uM
[10] = test system: Receptor-type tyrosine-protein kinase FLT3 (Homo sapiens), P36888 [R834Q]; conditions: Compound concentration 1000.0 nM
[11] = target: Mast/stem cell growth factor receptor Kit (Homo sapiens) (UniProt P10721); conditions: Compound concentration 1000.0 nM
[12] = target: Cyclin-dependent kinase 5 (Homo sapiens) (UniProt Q00535); conditions: Compound concentration 1000.0 nM
[13] = target: Dual specificity mitogen-activated protein kinase kinase 3 (Homo sapiens) (UniProt P46734); conditions: Compound concentration 1000.0 nM
[14] = target: ALK tyrosine kinase receptor (Homo sapiens) (UniProt Q9UM73); conditions: Compound concentration 1000.0 nM
[15] = target: Leucine-rich repeat serine/threonine-protein kinase 2 (Homo sapiens) (UniProt Q5S007); conditions: Compound concentration 1000.0 nM
[16] = target: Inhibitor of nuclear factor kappa-B kinase subunit alpha (Homo sapiens) (UniProt O15111); conditions: Compound concentration 1000.0 nM
[17] = target: Mitogen-activated protein kinase kinase kinase kinase 5 (Homo sapiens) (UniProt Q9Y4K4); conditions: Compound concentration 1000.0 nM
[18] = target: SRSF protein kinase 2 (Homo sapiens) (UniProt P78362); conditions: Compound concentration 1000.0 nM
[19] = target: Proto-oncogene tyrosine-protein kinase receptor Ret (Homo sapiens) (UniProt P07949); conditions: Compound concentration 1000.0 nM
[20] = test system: Fibroblast growth factor receptor 3 (Homo sapiens), P22607 [G697C]; conditions: Compound concentration 1000.0 nM
[21] = target: T2, 5-hydroxytryptamine receptor 3A (Homo sapiens) (UniProt P46098); experiment: 5-HT3 (h) CEREP ligand profiling; conditions: filed as antagonist, Compound concentration 10.0 uM
T2 sequence (whole entry): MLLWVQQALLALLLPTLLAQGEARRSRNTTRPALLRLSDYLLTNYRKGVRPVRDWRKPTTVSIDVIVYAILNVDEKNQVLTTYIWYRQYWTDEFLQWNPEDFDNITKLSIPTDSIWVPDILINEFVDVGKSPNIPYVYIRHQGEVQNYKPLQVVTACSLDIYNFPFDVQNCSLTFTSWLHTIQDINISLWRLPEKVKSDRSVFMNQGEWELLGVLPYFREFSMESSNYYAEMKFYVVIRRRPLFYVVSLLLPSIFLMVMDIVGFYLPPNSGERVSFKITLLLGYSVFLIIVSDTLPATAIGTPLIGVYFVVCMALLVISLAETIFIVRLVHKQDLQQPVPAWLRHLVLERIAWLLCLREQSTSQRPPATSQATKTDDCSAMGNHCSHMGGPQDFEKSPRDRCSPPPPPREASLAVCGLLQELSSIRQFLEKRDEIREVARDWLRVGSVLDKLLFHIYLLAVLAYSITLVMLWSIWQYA

[22] = target: Serine/threonine-protein kinase TAO1 (Homo sapiens) (UniProt Q7L7X3); conditions: Compound concentration 1000.0 nM
[23] = target: 5-hydroxytryptamine receptor 1B (Homo sapiens) (UniProt P28222); conditions: Compound concentration 10.0 uM
[24] = target: Tyrosine-protein kinase Fgr (Homo sapiens) (UniProt P09769); conditions: Compound concentration 1000.0 nM
[25] = target: Serine/threonine-protein kinase PLK1 (Homo sapiens) (UniProt P53350); conditions: Compound concentration 1000.0 nM
[26] = target: Serine/threonine-protein kinase ICK (Homo sapiens) (UniProt Q9UPZ9); conditions: Compound concentration 1000.0 nM
[27] = target: Serine/threonine-protein kinase PAK 1 (Homo sapiens) (UniProt Q13153); conditions: Compound concentration 1000.0 nM
[28] = target: Serine/threonine-protein kinase Nek11 (Homo sapiens) (UniProt Q8NG66); conditions: Compound concentration 1000.0 nM
[29] = target: Serine/threonine-protein kinase N2 (Homo sapiens) (UniProt Q16513); conditions: Compound concentration 1000.0 nM
[30] = target: Tyrosine-protein kinase JAK2 (Homo sapiens) (UniProt O60674); conditions: Compound concentration 1000.0 nM
[31] = test system: Epidermal growth factor receptor (Homo sapiens), P00533 [G719S]; conditions: Compound concentration 1000.0 nM

Serine/threonine-protein kinase TAO1 (Homo sapiens), sequence (Q7L7X3 whole entry): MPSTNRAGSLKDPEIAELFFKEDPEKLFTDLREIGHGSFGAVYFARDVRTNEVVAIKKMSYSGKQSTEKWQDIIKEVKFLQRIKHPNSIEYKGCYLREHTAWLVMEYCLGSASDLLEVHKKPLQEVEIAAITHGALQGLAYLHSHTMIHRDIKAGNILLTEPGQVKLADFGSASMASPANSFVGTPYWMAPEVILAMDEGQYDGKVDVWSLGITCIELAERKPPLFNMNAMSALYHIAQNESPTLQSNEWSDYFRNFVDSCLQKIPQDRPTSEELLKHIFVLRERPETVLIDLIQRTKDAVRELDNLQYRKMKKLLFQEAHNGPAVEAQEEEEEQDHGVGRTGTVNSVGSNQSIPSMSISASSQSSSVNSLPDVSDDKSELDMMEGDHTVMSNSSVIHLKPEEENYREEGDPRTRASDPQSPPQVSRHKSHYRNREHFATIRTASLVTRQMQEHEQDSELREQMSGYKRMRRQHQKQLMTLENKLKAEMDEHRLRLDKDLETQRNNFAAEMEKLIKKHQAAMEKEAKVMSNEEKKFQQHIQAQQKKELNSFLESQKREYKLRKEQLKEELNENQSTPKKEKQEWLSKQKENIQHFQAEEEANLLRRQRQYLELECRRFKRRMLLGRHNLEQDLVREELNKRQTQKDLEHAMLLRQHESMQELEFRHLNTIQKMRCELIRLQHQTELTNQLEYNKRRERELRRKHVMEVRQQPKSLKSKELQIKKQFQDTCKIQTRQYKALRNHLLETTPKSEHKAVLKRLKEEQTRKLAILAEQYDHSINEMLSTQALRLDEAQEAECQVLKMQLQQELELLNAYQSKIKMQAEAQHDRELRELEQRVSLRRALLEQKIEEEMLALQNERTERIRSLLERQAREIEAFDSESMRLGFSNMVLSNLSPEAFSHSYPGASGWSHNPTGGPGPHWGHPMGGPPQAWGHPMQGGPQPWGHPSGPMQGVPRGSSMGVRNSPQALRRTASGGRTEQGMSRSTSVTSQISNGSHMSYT
Leucine-rich repeat serine/threonine-protein kinase 2 (Homo sapiens), sequence (Q5S007 whole entry): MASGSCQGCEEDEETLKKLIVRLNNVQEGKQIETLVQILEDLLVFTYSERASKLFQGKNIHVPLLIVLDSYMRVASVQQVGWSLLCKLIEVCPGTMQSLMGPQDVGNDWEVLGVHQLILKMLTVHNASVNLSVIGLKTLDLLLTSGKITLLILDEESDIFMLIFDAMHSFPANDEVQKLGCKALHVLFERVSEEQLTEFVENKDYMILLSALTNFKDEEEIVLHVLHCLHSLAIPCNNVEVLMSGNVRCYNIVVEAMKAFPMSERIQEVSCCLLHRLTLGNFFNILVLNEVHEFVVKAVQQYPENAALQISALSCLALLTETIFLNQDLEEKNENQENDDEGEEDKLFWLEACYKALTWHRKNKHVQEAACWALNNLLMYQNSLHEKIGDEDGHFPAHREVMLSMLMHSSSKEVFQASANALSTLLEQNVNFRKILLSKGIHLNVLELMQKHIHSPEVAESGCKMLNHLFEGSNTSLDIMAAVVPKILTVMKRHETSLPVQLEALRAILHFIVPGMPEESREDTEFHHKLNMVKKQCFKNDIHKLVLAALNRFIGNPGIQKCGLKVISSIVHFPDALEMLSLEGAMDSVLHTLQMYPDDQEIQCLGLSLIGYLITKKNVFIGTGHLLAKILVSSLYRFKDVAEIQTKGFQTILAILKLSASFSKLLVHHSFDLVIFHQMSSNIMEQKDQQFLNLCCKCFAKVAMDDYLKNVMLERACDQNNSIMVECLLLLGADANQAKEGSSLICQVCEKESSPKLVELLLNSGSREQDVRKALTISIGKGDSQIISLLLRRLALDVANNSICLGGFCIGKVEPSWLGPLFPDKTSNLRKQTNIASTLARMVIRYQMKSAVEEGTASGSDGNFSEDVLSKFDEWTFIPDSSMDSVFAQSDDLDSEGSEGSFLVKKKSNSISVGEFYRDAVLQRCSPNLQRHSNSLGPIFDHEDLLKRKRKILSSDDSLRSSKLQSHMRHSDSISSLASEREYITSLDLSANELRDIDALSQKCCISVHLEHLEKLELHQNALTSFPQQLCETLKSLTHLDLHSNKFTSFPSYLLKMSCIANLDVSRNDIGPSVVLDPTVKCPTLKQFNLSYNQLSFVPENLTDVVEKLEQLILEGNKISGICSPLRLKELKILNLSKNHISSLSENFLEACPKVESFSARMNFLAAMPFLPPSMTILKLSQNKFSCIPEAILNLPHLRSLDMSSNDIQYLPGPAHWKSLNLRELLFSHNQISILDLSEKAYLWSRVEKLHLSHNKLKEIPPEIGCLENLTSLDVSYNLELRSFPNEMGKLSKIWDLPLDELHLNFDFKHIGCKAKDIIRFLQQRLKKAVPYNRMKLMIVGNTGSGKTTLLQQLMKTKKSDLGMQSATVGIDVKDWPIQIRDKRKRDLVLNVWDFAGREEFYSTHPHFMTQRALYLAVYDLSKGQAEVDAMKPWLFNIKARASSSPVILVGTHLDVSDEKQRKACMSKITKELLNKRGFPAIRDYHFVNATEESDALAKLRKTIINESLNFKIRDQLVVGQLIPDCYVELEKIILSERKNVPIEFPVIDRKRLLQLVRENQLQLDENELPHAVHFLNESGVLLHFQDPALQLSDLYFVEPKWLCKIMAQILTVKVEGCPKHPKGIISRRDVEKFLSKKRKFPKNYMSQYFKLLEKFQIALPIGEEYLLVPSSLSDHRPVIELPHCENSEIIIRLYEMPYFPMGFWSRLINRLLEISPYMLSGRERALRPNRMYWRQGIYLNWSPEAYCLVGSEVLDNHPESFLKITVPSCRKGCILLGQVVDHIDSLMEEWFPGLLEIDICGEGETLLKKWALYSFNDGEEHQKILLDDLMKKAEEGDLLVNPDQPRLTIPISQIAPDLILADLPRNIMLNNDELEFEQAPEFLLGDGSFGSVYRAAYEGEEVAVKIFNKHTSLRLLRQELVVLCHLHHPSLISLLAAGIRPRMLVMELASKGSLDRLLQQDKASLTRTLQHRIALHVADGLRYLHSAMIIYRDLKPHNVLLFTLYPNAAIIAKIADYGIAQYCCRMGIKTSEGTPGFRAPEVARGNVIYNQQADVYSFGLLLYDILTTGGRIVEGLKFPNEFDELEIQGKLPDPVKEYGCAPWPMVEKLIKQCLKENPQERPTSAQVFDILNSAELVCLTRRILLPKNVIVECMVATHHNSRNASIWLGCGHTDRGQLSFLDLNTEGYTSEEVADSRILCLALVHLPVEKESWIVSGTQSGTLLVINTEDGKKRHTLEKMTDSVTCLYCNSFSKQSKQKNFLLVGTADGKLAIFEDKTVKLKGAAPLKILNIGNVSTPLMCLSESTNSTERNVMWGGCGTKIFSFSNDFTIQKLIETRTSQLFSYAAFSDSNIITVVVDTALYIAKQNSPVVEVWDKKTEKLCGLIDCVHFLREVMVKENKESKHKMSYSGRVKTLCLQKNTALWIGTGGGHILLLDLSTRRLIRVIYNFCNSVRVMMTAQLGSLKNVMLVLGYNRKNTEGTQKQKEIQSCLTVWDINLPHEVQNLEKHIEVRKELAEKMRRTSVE
Serine/threonine-protein kinase ICK (Homo sapiens), sequence (Q9UPZ9 whole entry): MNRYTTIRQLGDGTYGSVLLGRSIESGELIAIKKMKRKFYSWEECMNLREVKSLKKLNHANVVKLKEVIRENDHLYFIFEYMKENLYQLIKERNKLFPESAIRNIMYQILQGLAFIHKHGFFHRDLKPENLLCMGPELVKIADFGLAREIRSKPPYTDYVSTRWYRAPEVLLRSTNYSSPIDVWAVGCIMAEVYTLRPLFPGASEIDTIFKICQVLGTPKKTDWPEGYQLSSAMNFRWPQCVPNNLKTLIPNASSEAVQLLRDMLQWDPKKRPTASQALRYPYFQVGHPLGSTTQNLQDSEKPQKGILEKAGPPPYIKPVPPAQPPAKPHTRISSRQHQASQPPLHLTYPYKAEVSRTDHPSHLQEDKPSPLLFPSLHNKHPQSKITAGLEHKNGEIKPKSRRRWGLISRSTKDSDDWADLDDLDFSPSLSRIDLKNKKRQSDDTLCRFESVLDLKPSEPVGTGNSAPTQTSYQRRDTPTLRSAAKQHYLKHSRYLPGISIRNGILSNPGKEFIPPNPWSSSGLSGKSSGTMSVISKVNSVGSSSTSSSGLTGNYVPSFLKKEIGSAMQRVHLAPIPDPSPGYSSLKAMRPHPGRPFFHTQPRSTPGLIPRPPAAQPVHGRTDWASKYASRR
Serine/threonine-protein kinase Nek11 (Homo sapiens), sequence (Q8NG66 whole entry): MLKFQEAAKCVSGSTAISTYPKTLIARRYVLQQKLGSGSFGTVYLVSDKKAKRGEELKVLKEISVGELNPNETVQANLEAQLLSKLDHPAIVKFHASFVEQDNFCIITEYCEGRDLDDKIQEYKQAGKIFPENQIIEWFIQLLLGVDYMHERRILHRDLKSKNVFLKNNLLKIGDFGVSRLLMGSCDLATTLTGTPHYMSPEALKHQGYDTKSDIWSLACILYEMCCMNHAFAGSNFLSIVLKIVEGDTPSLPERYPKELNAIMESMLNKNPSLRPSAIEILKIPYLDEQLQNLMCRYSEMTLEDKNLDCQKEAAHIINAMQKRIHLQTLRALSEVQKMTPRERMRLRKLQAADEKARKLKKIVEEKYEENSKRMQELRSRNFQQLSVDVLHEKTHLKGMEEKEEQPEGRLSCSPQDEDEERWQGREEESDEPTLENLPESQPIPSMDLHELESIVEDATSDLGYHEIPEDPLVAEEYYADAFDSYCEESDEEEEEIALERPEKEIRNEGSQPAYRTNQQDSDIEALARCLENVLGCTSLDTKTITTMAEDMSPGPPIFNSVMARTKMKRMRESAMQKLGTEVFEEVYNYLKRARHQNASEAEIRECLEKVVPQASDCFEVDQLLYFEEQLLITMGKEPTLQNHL
Cyclin-dependent kinase 5 (Homo sapiens), sequence (Q00535 whole entry, looked up): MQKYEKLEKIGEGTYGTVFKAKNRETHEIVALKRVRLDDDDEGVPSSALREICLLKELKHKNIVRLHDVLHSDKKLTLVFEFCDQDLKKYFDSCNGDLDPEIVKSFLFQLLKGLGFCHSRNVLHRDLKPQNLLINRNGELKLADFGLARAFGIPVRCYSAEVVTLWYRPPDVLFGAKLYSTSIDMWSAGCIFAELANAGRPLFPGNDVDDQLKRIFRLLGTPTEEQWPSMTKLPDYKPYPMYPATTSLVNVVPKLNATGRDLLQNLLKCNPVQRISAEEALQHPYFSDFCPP

Row | Compound | residual activity [1] | residual activity [2] | inhibition [3] | inhibition [4] | residual activity [5] | residual activity [6] | IC50 (LNCaP-Clone-FGC) | residual activity [7] | residual activity [8] | inhibition [9] | residual activity [10] | residual activity [11] | residual activity [12] | residual activity [13] | residual activity [14] | residual activity [15] | residual activity [16] | residual activity [17] | residual activity [18] | residual activity [19] | further results
1 | CNC(=O)Nc1ccc2c(c1)CC[C@@]21OC(=O)N(CC(=O)N(Cc2ccc(F)cc2)[C@@H](C)C(F)(F)F)C1=O [A-485] | 63% | 95% | 11% | 28% | 81% | 89% | 0.381 µM (active) | 82% | 94% | 9.97% | 92% | 100% | 84% | 71% | 68% | 79% | 92% | 88% | 100% | 90% | residual activity [20]: 79%; inhibition [21]: 0%; residual activity [22]: 94%; inhibition [23]: 9.82%; residual activity [24]: 75%; residual activity [25]: 63%; residual activity [26]: 72%; residual activity [27]: 88%; residual activity [28]: 91%; residual activity [29]: 97%; residual activity [30]: 83%; residual activity [31]: 95%
2 | CNC(=O)Nc1ccc2c(c1)[C@@]1(CC2)OC(=O)N(CC(=O)N(Cc2ccc(F)cc2)[C@@H](C)C(F)(F)F)C1=O [A-486] | 100% | 78% | -7% | 12% | 82% | 100% | > 10 µM (not active) | 100% | 100% | 0.29% | 96% | 94% | 79% | 87% | 77% | 71% | 100% | 100% | 100% | 93% | residual activity [20]: 96%; inhibition [21]: 4%; residual activity [22]: 97%; inhibition [23]: 11.2%; residual activity [24]: 88%; residual activity [25]: 82%; residual activity [26]: 67%; residual activity [27]: 98%; residual activity [28]: 84%; residual activity [29]: 100%; residual activity [30]: 100%; residual activity [31]: 100%
